Results on 3 compounds are retold here after patent US20080293936A1, “Novel inhibitors of lysyl oxidase” (priority 2007, published 2008).

pIC50: −log10 of the molar value.

The term pIC50 denotes −log10 of the IC50, conventionally taken in molar units. Low readings indicate a large IC50, high ones a small IC50.

For assay [1], the target named is T1, Lysyl oxidase (Bos taurus, UniProt P33072).
T1 construct: The enzyme preparation was carried out at 4° C. with fresh material from bovine aorta; from tissue; host or cells: bovine aorta
T1 sequence (P33072 170-418): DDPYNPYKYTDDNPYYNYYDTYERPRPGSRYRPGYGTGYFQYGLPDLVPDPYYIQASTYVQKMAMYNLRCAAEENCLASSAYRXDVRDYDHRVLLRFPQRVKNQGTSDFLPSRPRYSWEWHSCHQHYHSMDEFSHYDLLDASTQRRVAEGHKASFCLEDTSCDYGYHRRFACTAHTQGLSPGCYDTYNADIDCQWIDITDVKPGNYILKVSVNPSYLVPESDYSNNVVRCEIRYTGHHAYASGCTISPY
The assay is described as follows: Kinetic investigation: dialysis of lysyl oxidase-inhibitor complexes against inhibitor-free buffer, recovery of activity. The conditions noted are these: for vt/vmax: preincubation at 10-fold IC50; for k−1: calculated from slopes; for kon: pH 8.2, from k−1 and IC50, read-out: k1 (association velocity constant) (converted). The format is biochemical, bovine. As for the experimental part: Lysyl oxidasee and lysyl oxidase inhibitors of the structural formulas (XX)-(XXIII) (Table 1) were coincubated at concentrations that were 10-fold over the respective IC50 of the inhibitor and were subsequently dialyzed against 0.5 M borax buffer at pH 8.2 without added inhibitor. The dialysis buffer was exchanged twice during the first hour and subsequently three times in hourly intervals. The volume against which was dialyzed was at least 100-fold greater than the volume of the lysyl oxidase preparation in the dialysis tube. After 2, 4, 5 und 19 h lysyl oxidase activity was measured as described in Example 2. In a parallel assay a dialysis with a non-inhibited lysyl oxidase preparation was carried out to determine the effect of spontaneous activity loss during dialysis and to obtain a reference value (100% activity, positive control). From the obtained change in time-dependent activity it was possible to calculate the dissociation velocity constants of the inhibitor compounds, the half life times of the enzyme-inhibitor complexes and the association velocity constants. In the following section it is derived how these kinetic parameters can be determined form the measurement of the reaction velocity with the inhibited fraction at the timepoint t (vt) and the reaction velocity with the positive control (vmax).
Derivations: During dialysis against buffer without inhibitor the complex (EI) consisting of enzyme (E) and inhibitor (I) decays with a dissociation constant of first k−1
The velocity of decay is proportional to the concentration of the enzyme-inhibitor complex:
Rearranging this equation and definite Integration from the initial enzyme-inhibitor-complex concentration ([EI]0) to the concentration of the complex at the measurement time point t ([EI]t) on the left side and from t=0 to t on the right side yields:
The ratio of the reaction velocity when the inhibited enzyme preparation is used at a measurement time point t (vt) to the reaction velocity when the positive control is used (vmax) is dependent on the proportion of the total enzyme concentration in the assay ([E]0) that is present as enzyme-inhibitor-complex concentration at a time point t ([EI]t). The following equation describes this relationship: […]
For reasons of simplification a variable Rt can be defined
Solving the above differential equation and substituting Rt into the equation one obtains: […]
By linear regression with ln Rt and t, k−1 can be determined as the coefficient of slope.
Using k−1 one can calculate the half-life time of the enzyme-inhibitor-complexes (t1/2) as:
To determine the kinetic association constant the equilibrium is considered:
At the particular inhibitor concentration (IC50) at which the reaction velocity is 50% of the reaction velocity of the positive control, the free enzyme concentration ([E]) is approximately equal to the concentration of the enzyme inhibitor complex ([EI])
By substitution into the equilibrium equation and by simple rearrangement one obtains a term for the association constant which is dependent on the dissociation constant determined above and on the IC50:
Results Tables 2a to 2d show the results from reaction velocity measurements at the time points after 0, 120, 270 and 1140 min of dialysis against an inhibitor-free buffer. The relative reaction velocities and the derived constants are provided. In addition, the results of a regression analysis according to Example 3 are provided, from which the kinetic constants from table 3 can be calculated. Results are shown for compounds (XX)-[…].

The target in assay [2] is T1, Lysyl oxidase. The assay is described as follows: Lysyl oxidase inhibition, peroxidase-coupled fluorometric activity test. The format is biochemical, bovine. How it is done: Lysyl oxidase was isolated form bovine aorta, modified according to Williams und Kagan (1985) Assessment of lysyl oxidase variants by urea gel electrophoresis: evidence against disulfide isomers as bases of the enzyme heterogeneity. Anal. Biochem. 149: 430-7, and Kagan und Sullivan (1982) Lysyl oxidase: preparation and role in elastin biosynthesis. Methods Enzymol. 82(Pt A): 637-50. The enzyme preparation was carried out at 4° C. with fresh material from bovine aorta. The aorta was homogenized for 90 seconds in 2.5. ml buffer per gram of tissue. The buffer consisted of 16 mM potassium phosphate, 150 mM sodium chloride and 1 mM phenylmethylsulfonylfluoride. The homogenized mixture was centrifuged for 20 minutes at 11,000 g. The homogenization was followed by a centrifugation step and was repeated with 150 mM sodium chloride buffer and 1 M urea buffer. The pellet that was obtained after centrifugation was homogenized in buffer plus 4 M urea, was stirred over night and centrifuged twice. The supernatants with the lysyl oxidase activity were stored each time.
To determine the specific enzyme activity of lysyl oxidase a coupled activity test with fluorescence was applied (modified according to nach Trackman P C, Zoski C G, Kagan, H M (1981) Development of a peroxidase-coupled fluorometric assay for lysyl oxidase. Anal. Biochem. 113: 336-342).
Into a 2 ml plastic cuvette the following reaction solution was pipetted:
The fluorescence of the reaction solution was determined at an excitation wavelength of 350 nm and measurement of emission was carried out at 425 nm at 37° C. Before the addition of the sample solution fluorescence was determined by calibration with 1 nmol hydrogen peroxide. This increase in fluorescence was equivalent to a turnover of 1 nmol 1,5-diaminopentane. As a positive control the time course of the increase in fluorescence when an equivalent volume of lysyl oxidase without inhibitor was added, was used. The development of fluorescence of the assay without the addition of lysyl oxidase used as a negative control. […]

Setting [3] is: regression analysis below Tables 2a-2d.

For `COCCc1ccc(Oc2c(-n3ccnc3)cnn(-c3ccc(Cl)cc3)c2=O)cc1` [(XX), 2-(4-chlorophenyl)-5-(1H-imidazole-1-yl)-4-[4-(2-methoxyethyl)phenoxy]pyridazine-3(2H)-one], the Rt in assay [1] (0 min of dialysis) is given as 1; in assay [1] (120 min of dialysis), 0.91; in assay [1] (270 min of dialysis) it was 0.72; in assay [1] (1,140 min of dialysis), 0. Also, the “ln Rt” value in assay [1] (0 min of dialysis) is 0; in assay [1] (120 min of dialysis), −9.431 × 10^−2; in assay [1] (270 min of dialysis), −0.3285. Moreover, the vt/vmax in assay [1] (0 min of dialysis) was 0; in assay [1] (120 min of dialysis) it was 9 × 10^−2; in assay [1] (270 min of dialysis), 0.28; in assay [1] (1,140 min of dialysis), 1. For the same compound, the “k−1” value in assay [1] (Table 3) was 0.053 h⁻¹. Moreover, the kon in assay [1] (Table 3) was 13.6 M⁻¹ s⁻¹.
Consider `O=c1c(Oc2ccc(-c3ccccc3)cc2)c(-n2ccnc2)cnn1-c1ccc(Cl)cc1Cl` [(XXII), 4-(1,1′-biphenyl-4-yloxy)-2-(2,4-dichlorophenyl)-5-(1H-imidazole-1-yl)pyridazine-3(2H)-one], for which the Rt in assay [1] (0 min of dialysis) came to 1; in assay [1] (120 min of dialysis), 0.75; in assay [1] (270 min of dialysis), 0.64; in assay [1] (1,140 min of dialysis), 0.33. Also, the “ln Rt” value in assay [1] (0 min of dialysis) is on record as 0; in assay [1] (120 min of dialysis) it was −0.2877; in assay [1] (270 min of dialysis), −0.4463; in assay [1] (1,140 min of dialysis) it was −1.109. For the same compound, the vt/vmax in assay [1] (0 min of dialysis) was found to be 0; in assay [1] (120 min of dialysis), 0.25; in assay [1] (270 min of dialysis), 0.36; in assay [1] (1,140 min of dialysis) it was 0.67. Besides, the “k−1” value in assay [1] (Table 3) is 0.074 h⁻¹. In assay [1] (Table 3), the kon is 75 M⁻¹ s⁻¹. In assay [1] (setting [3]), the “k−1 (dissociation velocity constant)” value worked out at 0.05344 h⁻¹.
On to `CCCc1ccc(Oc2c(-n3ccnc3)cnn(-c3ccc(Cl)cc3)c2=O)cc1` [(XXIII), 2-(4-chlorophenyl)-5-(1H-imidazole-1-yl)-4-(4-propylphenoxy)pyridazine-3(2H)-one], for which the negative-log IC50 (pIC50) is 5.83 in assay [2] (Table 1, lysyl oxidase from bovine aorta, 37° C., pH 8.2); 5.83 in assay [2] (Table 3); about 5.83 in assay [2] (as quoted in titles of Tables 2a-2d). Besides, the Rt in assay [1] (0 min of dialysis) was 0.84; in assay [1] (120 min of dialysis), 0.47; in assay [1] (270 min of dialysis), 0.37; in assay [1] (1,140 min of dialysis), 0.11. The “ln Rt” value in assay [1] (0 min of dialysis) is −0.1744; in assay [1] (120 min of dialysis), −0.7550; in assay [1] (270 min of dialysis), −0.9943; in assay [1] (1,140 min of dialysis), −2.207. Moreover, the vt/vmax in assay [1] (0 min of dialysis) is listed as 0.16; in assay [1] (120 min of dialysis), 0.53; in assay [1] (270 min of dialysis), 0.63; in assay [1] (1,140 min of dialysis), 0.89. The “k−1” value in assay [1] (Table 3) was 0.097 h⁻¹. Besides, the residence time in assay [1] (Table 3, from k−1, read-out: t1/2 (half-life time of the enzyme-inhibitor complex) (converted)) is 438 min. For the same compound, the kon in assay [1] (Table 3) is 18.3 M⁻¹ s⁻¹. Also, in assay [1] (setting [3]), the “k−1 (dissociation velocity constant)” value was determined as 0.09694 h⁻¹. In addition, in assay [1] (setting [3]), the “slope (linear regression of ln Rt against t)” value is listed as −1.616×10^−3 1/min.
